Measured values as given in US10925890B2, “Use of dextran sulfate” (TX MEDIC AB, priority 2014, dated 2021).

Columns and labels:
tMCAO rat-stroke model [1] = test: Neurological test score (Neuroscore, mNRS), tMCAO rat; assay type: in vivo; conditions: groups 2M (30 mg/kg 3 times per week) and 3M (daily); day 7 up to day 28
Description: Transient middle cerebral artery occlusion was performed according to the method previously described in Stroke 29, 2162-2170 (1998). The right common carotid artery (CCA) was exposed through a midline neck incision and carefully dissected free from surrounding nerves and fascia—from its bifurcation to the base of the skull. The occipital artery branches of the external carotid artery (ECA) were then isolated, and these branches were dissected and coagulated. The ECA was dissected further distally and coagulated along with the terminal lingual and maxillary artery branches, which was then divided. The internal carotid artery (ICA) was isolated and carefully separated from the adjacent vagus nerve, and the pterygopalatine artery was ligated close to its origin with a 5-0 nylon suture (SMI, Belgium). Next a 4-0 silk suture was tied loosely around the mobilized ECA stump, and a 4 cm length of 4-0 monofilament nylon suture (the tip of the suture was blunted by using a flame, and the suture was coated with polylysine, prior to insertion) was inserted through the proximal ECA into the ICA and thence into the circle of Willis, effectively occluding the MCA. The surgical wound was closed and the animals were returned to their cages to recover from anesthesia. […]

tMCAO rat-stroke model [2] = test: Stepping test, tMCAO rat; assay type: in vivo; conditions: groups 2M and 3M; from day 7 to day 28
Description: Transient middle cerebral artery occlusion was performed according to the method previously described in Stroke 29, 2162-2170 (1998). The right common carotid artery (CCA) was exposed through a midline neck incision and carefully dissected free from surrounding nerves and fascia—from its bifurcation to the base of the skull. The occipital artery branches of the external carotid artery (ECA) were then isolated, and these branches were dissected and coagulated. The ECA was dissected further distally and coagulated along with the terminal lingual and maxillary artery branches, which was then divided. The internal carotid artery (ICA) was isolated and carefully separated from the adjacent vagus nerve, and the pterygopalatine artery was ligated close to its origin with a 5-0 nylon suture (SMI, Belgium). […]
Animals were tested for forelimb akinesia using the stepping test. […] The number of adjusting steps were counted while the animal was moved sideways along the table surface (85 cm in approximately five seconds), in the forehand and backhand direction for both forelimbs.

Dextran sulfate
Neuroscore (0-18) compared to vehicle treated control (tMCAO rat-stroke model [1]): Statistically significant differences | Stepping test, functional improvement compared to control (tMCAO rat-stroke model [2]): improvement reached statistical significance
